Test results published in patent US20230302036A1, “COMPOSITIONS FOR TREATMENT OF SPINAL MUSCULAR ATROPHY” (priority 2020, published 2023).
Entries after “also recorded” stand apart in the source; their conditions may differ. Oligonucleotides are written 5' to 3', each unit as a sugar letter and its base; * is a phosphorothioate linkage, no mark a phosphodiester; rarer units and linkages stand in square brackets, end groups in braces. Plain capitals give the bases only. e = 2'-O-(2-methoxyethyl) (MOE); [5mC] = 5-methylcytosine

Columns and labels:
[1] = tested on: RNAPII (total, P-Ser5, P-Ser2) along the SMN2 gene; assay: ChIP-qPCR of RNAPII distribution along the SMN2 gene in HEK293T cells; type: cell-based, human
Method: H3K9me2 (FIG. 2B), total RNAPII (FIG. 2C), P-Ser5 RNAPII (FIG. 2D), and P-Ser2 RNAPII (FIG. 2E) distribution along the SMN2 gene, assessed by ChIP-qPCR in HEK293T cells transfected with the scramble oligo (CTRL) or ASO1 and treated with 10 mM VPA. Four independent immunoprecipitation replicates were conducted per experiment. Data are represented as mean ± S.D. (n = 4, *p < 0.05, two-tailed Student’s t test).
Total distribution of H3K9me2 (FIG. 3C), total RNAPII (FIG. 3D), P-Ser5 RNAPII (FIG. 3E), and P-Ser2 RNAPII (FIG. 3F) along the SMN2 gene is shown. This distribution was assessed by ChIP-qPCR in HEK293T cells transfected with the scramble oligo (CTRL) or ASO2 and treated with 10 mM VPA. Four independent immunoprecipitation replicates were conducted per experiment. Data are represented as mean ± S.D. (n = 4, *p < 0.05, two-tailed Student’s t test).
Approximately 2×10^6 HEK293T cells per sample were treated for 10 min in 1% (v/v) formaldehyde at room temperature to crosslink protein-DNA complexes. Crosslinking was stopped with glycine at a final concentration of 125 mM. Cells were washed twice with cold PBS and swelled on ice for 10 min in 25 mM HEPES pH 8, 1.5 mM MgCl2, 10 mM KCl, 0.1% NP-40, 1 mM DTT and 1× protease inhibitor cocktail set III (Calbiochem). Following Dounce homogenization, the nuclei were collected and resuspended in 1 ml sonication buffer (50 mM HEPES pH 8, 140 mM NaCl, 1 mM EDTA, 0.1% sodium deoxycholate, 0.1% SDS and 1× protease inhibitor cocktail). DNA was sonicated in an ultrasonic bath (Bioruptor Diagenode) to an average length of 200-500 bp. After addition of 1% (v/v) Triton X-100, samples were centrifuged at 15,000 ×g. Supernatants were immunoprecipitated O/N with 40 µl of pre-coated anti-IgG magnetic beads (Dynabeads M-280, Invitrogen) previously incubated with the antibody of interest for 6 hr at 4° C. The antibodies used were: rabbit anti-H3 (2 µg, Abcam ab1791), mouse anti-H3K9me2 (4 µg, Abcam ab1220), rabbit anti H3K9me3 (4 µg, Abcam ab8898), rabbit anti H3K9Ac (2 µg, Abcam ab4441), rabbit anti Rpb1 NTD (2 µg, Cell Signaling, D8L4Y), rabbit Phospho-Rpb1 CTD Ser2 (2 µg, Cell Signaling, E1Z3G), rabbit Phospho-Rpb1 CTD Ser5 (2 µg, Cell Signaling, D9N5I). Control immunoprecipitations were performed with rabbit IgG (1 µg, Abcam ab171870). Beads were washed sequentially for 5 min each in Low-salt (20 mM Tris-HCl pH 8, 150 mM NaCl, 2 mM EDTA, 1% Triton X-100, 0.1% SDS), High-Salt (20 mM Tris-HCl pH 8, 500 mM NaCl, 2 mM EDTA, 1% Triton X-100, 0.1% SDS) and LiCl buffer (10 mM Tris pH 8.0, 1 mM EDTA, 250 mM LiCl, 1% NP-40, 1% Na-deoxycholate) for 5 min at 4° C. and then twice in TE 1x for 2 min at room temperature. Beads were eluted in 1% SDS and 100 mM NaHCO3 buffer for 15 min at 65° C. and crosslinking was reversed for 6 hr after addition of NaCl to a final concentration of 200 mM. Chromatin was precipitated with ethanol overnight, treated with 20 µg proteinase K, and purified by phenol-chloroform extraction. Immunoprecipitated DNA (1.5 µl) and serial dilutions of the 10% input DNA (1:4, 1:20, 1: 100, and 1:500) were analyzed by SYBR-Green real-time qPCR.

[2] = tested on: SMA mice (Smn-/-; SMN2 2TG/0); assay: Kaplan-Meier survival of severe SMA mice; type: in vivo, mouse; conditions: s.c. ASO1 at P0 and P1 and/or one s.c. VPA 10 µg/g
Method: Kaplan-Meier survival plot (FIG. 4A) and growth curves (FIG. 4B) of SMA mice, following subcutaneous administration at P0 and P1 of 16.8 µg ASO1 (n=18) or saline (n=14), one subcutaneous dose before P3 of 10 µg per g of body weight VPA (n=12), or both treatments together (n=20). ASO1-treated Smn^+/- heterozygote littermates (n=15) served as controls. Scramble (Ctrl) (n=12, 40 trials), VPA (n=13, 50 trials), ASO1 (n=11, 50 trials), ASO1 + VPA (n=17, 68 trials), and untreated heterozygotes (n=12, 36 trials). Statistical significance was analyzed by two-way repeated measures ANOVA. P < 0.05 was considered statistically significant; data are represented as mean + SD. In the righting-reflex test, the time it took a mouse to right itself […] on a flat surface was measured. In the grip-strength test, the angle at which the pups fell from a tablet with a rough to which they held on by their forelimbs was measured.
FIGS. 7A-H show ASO1 and TSA combined treatment in mice. Kaplan-Meier survival plot (FIG. 7A) and growth curves (FIG. 7B) of SMA mice after subcutaneous administration at P0 and P1 of 16.8 µg ASO1 (n=20) or vehicle (n=12), one subcutaneous dose of 10 µg per g of body weight TSA (n=15) at P2, or both treatments together (n=24), are shown. ASO1-treated heterozygotes (n=18) served as controls. Statistical significance was analyzed by two-way repeated measures ANOVA. P < 0.05 was considered statistically significant; data are represented as mean + SD.
All mouse protocols were in accordance with Cold Spring Harbor Laboratory’s Institutional Animal Care and Use Committee guidelines. The mild Hung mouse model (Smn^-^/-; SMN2^2TG/2TG) was the strain FVB.Cg-Smn1^tm1Hung Tg(SMN2)2^Hung/J, purchased from Jackson Laboratory (stock no. 005058). The severe SMA model (Smn^-/-; SMN2^2TG/0) was generated as previously described (Hua et al., Nature 478, 123-126, 2011).
Oligonucleotide solutions in saline were injected subcutaneously into the upper back at P0 and P1 with a […] and 33-gauge custom removable needle (Hamilton) as described (Hua et al., Nature 478, 123-126, 2011). All drugs were injected subcutaneously before P3, contralateral to the oligonucleotide-injection site, with TSA (10 mg/kg) or VPA (10 mg/kg) or vehicle. Mouse tissues and organs, including liver, thigh muscles, kidney, and spinal cord, were snap-frozen in liquid N2 and stored at -70° C.
Introduction of a human SMN2 transgene in an Smn^-/- background rescues embryonic lethality, displaying a range of phenotypes, depending on the SMN2 copy number (Hsieh-Li et al., Nat. Genet. 24, 66-70, 2000; Monani et al., Hum Mol Genet. 12; 333-339, 2000). […]

Row | Molecule | RNAPII peak (total, P-Ser5, P-Ser2) in ASO1-transfected cells additionally treated with VPA ([1]; ASO1 plus 10 mM VPA) | roadblocks to elongation in ASO2-transfected cells treated with VPA ([1]; ASO2 plus 10 mM VPA) | survival (in words) [2] | P-Ser2 RNAPII density ([1]; ASO transfection vs scramble) | P-Ser5 RNAPII density ([1]; ASO transfection vs scramble) | total RNAPII density ([1]; ASO transfection vs scramble) | median survival [2] | mice still alive at P50 [2] [%]
1 | CCCC(CCC)C(=O)O [VPA, valproic acid] | abolished | abolished | died before P10; also recorded: lack of an effect per se |  |  |  |  | 
2 | ASO1: 5′-ATTCACTTTCATAATGCTGG-3′ 2′-O-methoxyethyl-modified oligonucleotide with phosphorothioate backbone and all 5-methyl cytosines; nusinersen variant with 2-nucleotide extension (antisense eA*eT*eT*e[5mC]*eA*e[5mC]*eT*eT*eT*e[5mC]*eA*eT*eA*eA*eT*eG*e[5mC]*eT*eG*eG) |  |  | significantly extended | greatly increased | greatly increased | greatly increased | ~ 20 days | 15
